# Laboratory results from US6426204B1, “Method for detecting candida infection” (priority 1991, dated 2002).
# Biological target: T1, C. tropicalis D-arabinitol dehydrogenase (Candida tropicalis, UniProt P50166)
# T1 construct: endogenous in cells
# Assay: Specificity of the fluorogenic D-arabinitol assay (reactivity of sugars and sugar alcohols)
# Assay type: biochemical
# Details: compound 5 μmol/L in PBS/10 mmol/L citrate pH 4.0; relative to D-arabinitol
# Method: Human serum was diluted 1:3 (v/v) with 10 mmol/L citrate (pH 4.0), placed in a boiling water bath for 10 min, and then centrifuged at 10,000×g for 10 min to remove precipitated material. The supernatant was used as the sample. Reaction mixtures (vol.=0.4 mL) contained 0.3 mL of sample, 1 mmol/L NAD^+, 4 mmol/L Mg^2+, 0.35 IU C. tropicalis D-arabinitol dehydrogenase prepared as described in Example 1, and 0.1 mol/L Tris (pH 9.5). Incubation was for 15 min at room temperature to promote the D-arabinitol dehydrogenase-catalyzed oxidation of D-arabinitol with concomitant reduction of NAD^+ to NADH. This initial incubation stage was terminated by reducing the pH of the reaction mixture to 5.8 with 0.03 mL 1.0 mol/L citrate (pH 3.6). Resazurin (12.5 μmol/L) and diaphorase (0.15 IU) were then added, and the sample was reincubated at room temperature to promote the diaphorase-catalyzed utilization of NADH (which had accumulated in the initial incubation stage) for the reduction of resazurin to resorufin. Formation of the latter was monitored fluorometrically (Excitation=560 nm, Emission=580 nm) using a Perkin-Elmer fluorescence spectrophotometer, Model #650-40, and was complete within 30 sec.
# A series of sugars and sugar alcohols normally present in human serum were assessed for reactivity in the fluorometric assay. Of the compounds examined, significant reactivity relative to that observed with an equimolar concentration of D-arabinitol was found only with xylitol (3.3%). D-glucose at concentrations as great as 5.0 mmol/L was not utilized as “a” substrate.
# Assays were performed as described in Example 4 except the sample contained, instead of the boiled serum supernatant, the indicated compound in PBS/10 mmol/L citrate, pH 4.0 (1:3, v/v).
# T1 sequence (P50166 whole entry): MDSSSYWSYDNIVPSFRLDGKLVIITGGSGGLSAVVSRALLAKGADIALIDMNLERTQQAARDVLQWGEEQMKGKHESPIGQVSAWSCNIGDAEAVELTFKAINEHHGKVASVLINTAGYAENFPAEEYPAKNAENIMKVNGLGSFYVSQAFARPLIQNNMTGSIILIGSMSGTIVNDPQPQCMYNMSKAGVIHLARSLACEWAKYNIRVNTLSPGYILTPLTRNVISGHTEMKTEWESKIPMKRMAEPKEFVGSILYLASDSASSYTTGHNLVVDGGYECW
row,Compound,Relative Reactivity [%]
1,OC[C@@H](O)C(O)[C@H](O)CO [D-arabinitol],100
2,OC[C@@H](O)[C@@H](O)[C@H](O)[C@H](O)CO [D-mannitol],0
3,OC[C@@H](O)[C@@H](O)[C@H](O)[C@@H](O)CO [D-sorbitol],0.1
4,OC[C@H](O)C(O)[C@@H](O)CO [L-arabinitol],0
5,OC[C@@H](O)[C@@H](O)CO [erythritol],0
6,OC[C@@H](O)[C@H](O)[C@H](O)[C@@H](O)CO [galactitol],0.6
7,OC[C@@H](O)[C@@H](O)[C@@H](O)CO [ribitol],0
8,OC[C@@H](O)[C@H](O)CO [threitol],0.1
9,OC[C@@H](O)[C@H](O)[C@@H](O)CO [xylitol],3.3

# Same assay, conditions: compound 500 μmol/L in PBS/10 mmol/L citrate pH 4.0; relative to D-arabinitol
row,Compound,Relative Reactivity [%]
1,O=C(CO)[C@@H](O)[C@H](O)[C@H](O)CO [D-fructose],0
2,O=C[C@H](O)[C@@H](O)[C@@H](O)[C@H](O)CO [D-galactose],0.9
3,O=C[C@@H](O)[C@@H](O)[C@H](O)[C@H](O)CO [D-mannose],0.3

# Same assay, conditions: compound 5000 μmol/L in PBS/10 mmol/L citrate pH 4.0; relative to D-arabinitol
row,Compound,Relative Reactivity [%]
1,O=C[C@H](O)[C@@H](O)[C@H](O)[C@H](O)CO [D-glucose],0

# Same assay, conditions: concentrations as great as 5.0 mmol/L
row,Compound,Utilization as substrate in the fluorometric assay
1,O=C[C@H](O)[C@@H](O)[C@H](O)[C@H](O)CO [D-glucose],not utilized
